PMC10044120, “Potent and selective covalent inhibition of the papain-like protease from SARS-CoV-2” (Nature Communications, 2023)
Several values for one entry are separate records, joined by “and”; a condition that tells them apart may be missing. Identical values can stand only once. Like-named read-outs stand apart in the source and are kept apart here.

Assays:
[1] = Metabolic stability in human liver S9 fraction
[2] = system: SARS-CoV-2 isolate USA-WA1/2020; experiment: microbe, parasite or virus in culture
[3] = Metabolic stability in mouse liver S9 fraction; conditions: CD-1, mouse
PLpro from SARS-CoV-2 = PLpro from SARS-CoV-2 (Severe acute respiratory syndrome coronavirus 2, UniProt P0DTD1); experiment: biochemical; assay type: biochemical
[4] = Metabolic stability in mouse liver microsomes; conditions: CD-1, mouse
Vero E6 cells [5] = conditions: African green monkey
[6] = Metabolic stability in rat liver S9 fraction; conditions: Sprague-Dawley
[7] = system: viral replication in Vero E6 cells; conditions: cited from earlier work
in vitro = conditions: African green monkey, cytotoxicity, %cell viability
[8] = Metabolic stability in human liver microsomes
[9] = system: SARS-CoV-2 isolate USA-WA1/2020
[10] = Metabolic stability in rat liver microsomes; conditions: Sprague-Dawley
Vero E6 cells [11] = conditions: for Percent Cytotoxicity (Neutral Red): Vero E6
SARS-CoV-2 USA-WA1/2020 [12] = experiment: CPE assay, neutral red, Vero E6 cells with 2 μM CP-100356, USA-WA1/2020; assay type: cell-based; conditions: for Percent Cytopathic Effect (Neutral Red): USA-WA1/2020
[13] = system: SARS-CoV-2 Delta (B.1.617.2); experiment: microbe, parasite or virus in culture; assay type: cell-based; conditions: Delta (B1.617.2), Caco-2
[14] = system: SARS-CoV-2 Delta (B.1.617.2); experiment: CPE assay, neutral red, Vero E6 cells with 2 μM CP-100356, Delta; assay type: cell-based; conditions: Delta (B1.617.2), Vero E6, 2 μM CP-100356
Caco-2 cells = conditions: for Percent Cytotoxicity (Neutral Red): Caco-2
[15] = system: SARS-CoV-2 Omicron (B.1.1.529); experiment: microbe, parasite or virus in culture; assay type: cell-based; conditions: Omicron (B1.1.529), Caco-2
SARS-CoV-2 USA-WA1/2020 [16] = experiment: microbe, parasite or virus in culture; assay type: cell-based; conditions: for Virus Titer: USA-WA1/2020
UCH-L1 = conditions: cited from earlier work
UCH-L3 = conditions: cited from earlier work
deISGylase USP18 = conditions: cited from earlier work
HAUSP = conditions: cited from earlier work
[17] = Severe acute respiratory syndrome coronavirus 2, Vero C1008, read-out: cytopathic effect, % cell viability

In the case of Cc1ccccc1C(=O)N[C@H](C)c1cccc2ccccc12 [Compound 14, (R)-2-methyl-N-(1-(naphthalen-1-yl)ethyl)benzamide], the half-life [1] is reported as greater than 60 min, the microsomal CLint [1] is reported as less than 38.5 µL/min/mg and the inhibition at […] [2, 17] is reported as 7.92% and 10.7%. It also gave an inhibition at 2.08 µM ([2]; Severe acute respiratory syndrome coronavirus 2, Vero C1008, read-out: cytopathic effect, % cell viability, [inhibitor] 2.08 uM, duplicate wells) of 11.3%, an inhibition at 16.65 µM ([2]; Severe acute respiratory syndrome coronavirus 2, Vero C1008, read-out: cytopathic effect, % cell viability, [inhibitor] 16.65 uM, duplicate wells) of 7.05% and a half-life [3] of 18 min. The microsomal CLint [3] was 128 µL/min/mg, the remaining activity at 0.02 µM (PLpro from SARS-CoV-2; 0.5 h, inhibitor 0.02 uM) was 96.3% and the remaining activity at 0.06 µM (PLpro from SARS-CoV-2; 0.5 h, inhibitor 0.06 uM) was 94.2%. For the same molecule, the remaining activity at 0.2 µM (PLpro from SARS-CoV-2; 0.5 h, inhibitor 0.20 uM) was 103%, the remaining activity at 2.01 µM (PLpro from SARS-CoV-2; 0.5 h, inhibitor 2.01 uM) was 90.5% and the remaining activity at 6.34 µM (PLpro from SARS-CoV-2; 0.5 h, inhibitor 6.34 uM) was 77.4%. For the same molecule, the remaining activity at 20 µM (PLpro from SARS-CoV-2; 0.5 h, inhibitor 20.00 uM) was 56.2%, the remaining activity at 200 µM (PLpro from SARS-CoV-2; 0.5 h, inhibitor 200.00 uM) was 40.8% and the IC50 (PLpro from SARS-CoV-2; after 30-min incubation, […]) was 100 µM. The half-life [4] was 16 min, the microsomal CLint [4] was 435 µL/min/mg and the “cytotoxicity, %cell viability” value (Vero E6 cells [5]; 48 h, 2.08 µM) was 96.55%. For the same molecule, the “cytotoxicity, %cell viability” value (Vero E6 cells [5]; 48 h, 8.33 µM) was 99.10%, the “cytotoxicity, %cell viability” value (Vero E6 cells [5]; 48 h, 16.65 µM) was 92.38% and the half-life [6] was 17 min. The microsomal CLint [6] was 138 µL/min/mg, the EC50 [7] was 10 µM and the viability at 48 h, 2.08 µM (in vitro) was 100%. For the same molecule, the viability at 48 h, 8.33 µM (in vitro) was 95.2%, the viability at 48 h, 16.65 µM (in vitro) was 95.7% and the half-life [8] was 41 min. For the same molecule, the microsomal CLint [8] was 171 µL/min/mg, the inhibition ([9]; read-out: cytopathic effect, % cell viability, [inhibitor] 2.08 uM, duplicate wells, 2.08 µM) was 7.39% and the inhibition ([9]; read-out: cytopathic effect, % cell viability, [inhibitor] 16.65 uM, duplicate wells, 16.65 µM) was 5.25%. It also gave a half-life [10] of 21 min and a microsomal CLint [10] of 330 µL/min/mg.

Molecule O=c1nc(NO)ccn1[C@@H]1O[C@H](CO)[C@@H](O)[C@H]1O [EIDD-1931] has a CC50 (Vero E6 cells [11]; Vero E6, 2 μM CP-100356, Delta rows) greater than 100 µM, a CC50 (Vero E6 cells [11]; Vero E6, 2 μM CP-100356, Omicron rows) greater than 100 µM and a CC50 (Vero E6 cells [11]; Vero E6, 2 μM CP-100356, USA-WA1/2020 rows) greater than 100 µM. For the same molecule, the “Percent Cytotoxicity (Neutral Red)” value (Vero E6 cells [11]; SARS2-733 (Delta set), 0.1 µg/mL) was 2.1%, the “Percent Cytotoxicity (Neutral Red)” value (Vero E6 cells [11]; SARS2-733 (Delta set), 1 µg/mL) was 5.1% and the “Percent Cytotoxicity (Neutral Red)” value (Vero E6 cells [11]; SARS2-733 (Delta set), 10 µg/mL) was 36.7%. The “Percent Cytotoxicity (Neutral Red)” value (Vero E6 cells [11]; SARS2-733 (Delta set), 100 µg/mL) was 48.2%, the “Percent Cytotoxicity (Neutral Red)” value (Vero E6 cells [11]; SARS2-733 (Omicron set), 0.1 µg/mL) was 0.0% and the “Percent Cytotoxicity (Neutral Red)” value (Vero E6 cells [11]; SARS2-733 (Omicron set), 1 µg/mL) was 0.0%. For the same molecule, the “Percent Cytotoxicity (Neutral Red)” value (Vero E6 cells [11]; SARS2-733 (Omicron set), 10 µg/mL) was 28.4%, the “Percent Cytotoxicity (Neutral Red)” value (Vero E6 cells [11]; SARS2-733 (Omicron set), 100 µg/mL) was 45.6% and the “Percent Cytotoxicity (Neutral Red)” value (Vero E6 cells [11]; SARS2-735, 0.1 µg/mL) was 0.0%. The “Percent Cytotoxicity (Neutral Red)” value (Vero E6 cells [11]; SARS2-735, 1 µg/mL) was 0.0%, the “Percent Cytotoxicity (Neutral Red)” value (Vero E6 cells [11]; SARS2-735, 10 µg/mL) was 23.0% and the “Percent Cytotoxicity (Neutral Red)” value (Vero E6 cells [11]; SARS2-735, 100 µg/mL) was 38.9%. The EC50 (SARS-CoV-2 USA-WA1/2020 [12]; USA-WA1/2020, Vero E6, 2 μM CP-100356) was 0.3 µM, the “Percent Cytopathic Effect (Neutral Red)” value (SARS-CoV-2 USA-WA1/2020 [12]; 0.1 µg/mL) was 95.9% and the “Percent Cytopathic Effect (Neutral Red)” value (SARS-CoV-2 USA-WA1/2020 [12]; 1 µg/mL) was 0.0%. For the same molecule, the “Percent Cytopathic Effect (Neutral Red)” value (SARS-CoV-2 USA-WA1/2020 [12]; 10 µg/mL) was 0.559%, the “Percent Cytopathic Effect (Neutral Red)” value (SARS-CoV-2 USA-WA1/2020 [12]; 100 µg/mL) was 0.0% and the EC90 [13] was 4.9 µM. For the same molecule, the EC50 [14] was 0.31 µM, the CC50 (Caco-2 cells; Caco-2, Delta rows) was greater than 100 µM and the CC50 (Caco-2 cells; Caco-2, Omicron rows) was greater than 100 µM. The CC50 (Caco-2 cells; Caco-2, USA-WA1/2020 rows) was 94 µM, the “Percent Cytotoxicity (Neutral Red)” value (Caco-2 cells; SARS2-740 (Delta set), 0.1 µg/mL) was 7.9% and the “Percent Cytotoxicity (Neutral Red)” value (Caco-2 cells; SARS2-740 (Delta set), 1 µg/mL) was 14.7%. The “Percent Cytotoxicity (Neutral Red)” value (Caco-2 cells; SARS2-740 (Delta set), 10 µg/mL) was 5.3%, the “Percent Cytotoxicity (Neutral Red)” value (Caco-2 cells; SARS2-740 (Delta set), 32 µg/mL) was 15.2% and the “Percent Cytotoxicity (Neutral Red)” value (Caco-2 cells; SARS2-740 (Delta set), 100 µg/mL) was 30.0%. The “Percent Cytotoxicity (Neutral Red)” value (Caco-2 cells; SARS2-740 (Omicron set), 0.1 µg/mL) was 0.118%, the “Percent Cytotoxicity (Neutral Red)” value (Caco-2 cells; SARS2-740 (Omicron set), 1 µg/mL) was 4.7% and the “Percent Cytotoxicity (Neutral Red)” value (Caco-2 cells; SARS2-740 (Omicron set), 10 µg/mL) was 1.2%. For the same molecule, the “Percent Cytotoxicity (Neutral Red)” value (Caco-2 cells; SARS2-740 (Omicron set), 32 µg/mL) was 6.1%, the “Percent Cytotoxicity (Neutral Red)” value (Caco-2 cells; SARS2-740 (Omicron set), 100 µg/mL) was 24.6% and the “Percent Cytotoxicity (Neutral Red)” value (Caco-2 cells; SARS2-740 (USA-WA1/2020 set), 0.1 µg/mL) was 15.6%. The “Percent Cytotoxicity (Neutral Red)” value (Caco-2 cells; SARS2-740 (USA-WA1/2020 set), 1 µg/mL) was 13.4%, the “Percent Cytotoxicity (Neutral Red)” value (Caco-2 cells; SARS2-740 (USA-WA1/2020 set), 10 µg/mL) was 13.8% and the “Percent Cytotoxicity (Neutral Red)” value (Caco-2 cells; SARS2-740 (USA-WA1/2020 set), 32 µg/mL) was 17.6%. For the same molecule, the “Percent Cytotoxicity (Neutral Red)” value (Caco-2 cells; SARS2-740 (USA-WA1/2020 set), 100 µg/mL) was 51.9%, the EC90 [15] was 2.9 µM and the EC90 (SARS-CoV-2 USA-WA1/2020 [16]; USA-WA1/2020, Caco-2) was 0.12 µM. The “Virus Titer” value (SARS-CoV-2 USA-WA1/2020 [16]; 0.1 µg/mL) was 3.7 CCID50/mL (Log10), the “Virus Titer” value (SARS-CoV-2 USA-WA1/2020 [16]; 1 µg/mL) was <0.7 CCID50/mL (Log10) and the “Virus Titer” value (SARS-CoV-2 USA-WA1/2020 [16]; 10 µg/mL) was <0.7 CCID50/mL (Log10). The “Virus Titer” value (SARS-CoV-2 USA-WA1/2020 [16]; 32 µg/mL) was <0.7 CCID50/mL (Log10) and the “Virus Titer” value (SARS-CoV-2 USA-WA1/2020 [16]; 100 µg/mL) was <0.7 CCID50/mL (Log10).

For Cc1ccc(N)cc1C(=O)N[C@H](C)c1cccc2ccccc12 [GRL0617, reference compound], the inhibition at 2.08 µM [2, 17] was 15.2%, the inhibition at 8.33 µM [2, 17] was 7.11% and the inhibition at […] [2, 17] was 11.5% and 6.73% and 8.44%. For the same molecule, the IC50 (UCH-L1) was greater than 100 µM, the “cytotoxicity, %cell viability” value (Vero E6 cells [5]; 2.08 µM) was 100.64% and the “cytotoxicity, %cell viability” value (Vero E6 cells [5]; 8.33 µM) was 100.01%. For the same molecule, the “cytotoxicity, %cell viability” value (Vero E6 cells [5]; 16.65 µM) was 87.87%, the IC50 (UCH-L3) was greater than 100 µM and the IC50 (deISGylase USP18) was greater than 100 µM. The viability at 2.08 µM (in vitro) was 99.1%, the viability at 8.33 µM (in vitro) was 93.3% and the viability at 16.65 µM (in vitro) was 80.3%. For the same molecule, the viability at […] (in vitro) was 104% and 102% and 77.8% and 100%, the IC50 (HAUSP) was greater than 100 µM and the inhibition ([9]; African green monkey, 2.08 µM) was 8.22%. The inhibition ([9]; African green monkey, 8.33 µM) was 3.62%.
